# Test: Mouse pharmacokinetic study: liver concentrations of dFdC and dFdU at 2h
# Assay type: in vivo, C57BL/6 mice
# Conditions: i.v., Gemcitabine 15 mg/kg or Compound 4 at equivalent dose, Fig. 2
# Procedure: C57BL/6 mice used in this experiment were purchased from Beijing Vital River Laboratory Animal Technology Co., Ltd., and male mice with a body weight in the range of 16~19 g were tested for administration. The animals were housed with appropriate air conditions (temperature: 20~25 °C; humidity: 40%~70%; light/dark cycle: 12 hours), and were provided with the food and water ad lib.
# The solution media for IV administration were DMSO: 30% solutol HS-15:saline = 10:10:80 (v/v/v). Test substances were dissolved in the media to obtain a clear solution, and filtered through PTFE to get a colorless clear solution for IV administration.
# The solution media for oral administration were DMSO: 30% solutol HS-15:saline = 10:10:80 (v/v/v). […]
# The pharmacokinetic (PK) profile of liver-targeted gemcitabine (dFdC) prodrug according to Formula I (i.e., Compound 4) was evaluated in male […] mice following intravenous administration (i.v.) at an equivalent dose to 15 mg/kg of Gemcitabine or following oral administration (PO or i.g.) at a dose of 80 mg/kg.
# Blood samples of designated animals (n = 3/time point/compound) were taken at 0.083, 0.25, 0.5, 1, 2, 4, and 8 hours following i.v. administration, and at 0.25, 0.5, 1, 2, 4, 8 and 24 hours following PO administration, respectively. […] Pharmacokinetic parameters were calculated using WinNonlin software (Pharsight Corp., Mountain View, CA).
structure (smiles),measurement,value
"Nc1ccn([C@@H]2O[C@H](CO)[C@@H](O)C2(F)F)c(=O)n1 [Gemcitabine, 2',2'-difluoro-2'-deoxycytidine]",dFdC levels in the liver,no detectable dFdC levels
same,dFdU levels in the liver,significant levels of dFdU

# From patent publication EP3820879B1, “PHOSPHORUS-CONTAINING PRODRUGS OF GEMCITABINE” (Changchun Changcheng Pharmaceutical Technology Co., LTD, priority 2018, dated 2020)
